Laboratory results from patent US11351185B2, “Use of isovalerylspiramycins as anti-cancer agents to inhibit metastasis” (priority 2020, dated 2022).
Where “and” joins values, the source holds several entries; their conditions need not be identical. Equal values may be shown once.

Key:
[1] = test system: renal cell carcinoma (RCC) cell lines ACHN, UM-RC-2, RCC4 and 786-O; assay: CCK8 cell viability assay, renal cell carcinoma cell lines; assay type: cell-based; conditions: 48 hours
Description: To confirm the cytotoxic effect observed in the glioblastoma cell lines, the inventors assessed ISP I's effect on renal cell carcinoma (RCC) cell lines (ACHN, UM-RC-2, RCC4 and 786-0). Cell viability was assessed similarly via CKK8 analysis. […] (FIG. 4C, D).
Cell viability was measured by Cell Counting Kit-8 (CCK-8, Dojindo Molecular Technologies, Tokyo, Japan). Cells were seeded in 96-well plates at a density of 3×10^3 cells/well and cultured for 24 hours before treatment with ISP I at different concentration. After treatment for a gradient ISP I concentration from 0 to 20 μg/ml for 48 hours, while control groups were only treated in PBS solution, 10 μl of CCK-8 solution were added to each well and cells were incubated for an additional 2 hours. The absorbance in each well at a wavelength of OD450 was detected by the Synergy H1 microplate reader, a product of BioTek (Winooski, Vt. USA).

[2] = test system: in vivo cancer parameters; conditions: animal models; cited from earlier work

With `COC1C(O)CC(=O)OC(C)CC=CC=CC(OC2CCC(N(C)C)C(C)O2)C(C)CC(CC=O)C1OC1OC(C)C(OC2CC(C)(O)C(OC(=O)CC(C)C)C(C)O2)C(N(C)C)C1O` (stereo not drawn) [ISP I, 4″-isolvalerylspiramycin I] as the compound, how does the “cytotoxic effect on RCC cell lines” value [1] read?
The value was “demonstrated a cytotoxic effect”.

What about the “most / least sensitive RCC cell line to cytotoxic effect” value ([1]; ACHN, UM-RC-2, RCC4, 786-O) of the same compound?
The value was “ACHN appeared to be the most sensitive and 786-O demonstrated to be the least sensitive”.

And the “in vivo cancer parameters such as tumor growth rate and relative tumor volume” value [2]?
Its value is “reduction”.
